# According to patent US12637499B2, “Adrenomedullin analog, method for producing the same, and pharmaceutical use thereof” (priority 2020, dated 2026):
# pEC50: −log10 of the molar value. Where a SMILES comes first, the peptide text is derived from it. Bridges are numbered along the chain shown (N, C = ends).
# What was measured:
# [1] = in vitro; settings: for stability in reaction mixture with human serum: Experiment VIII, 10^−7 M, 37° C., 4 hours after the beginning of reaction
# Procedure: The stabilities of the AM analog peptides in serum were evaluated with the same procedure as in Experiment I except the following procedure. […] A reaction mixture containing 4 μL of phosphate buffer, 20 μL of human serum (Sigma-Aldrich Co. LLC, USA), and 14 μL of water was prepared. To the reaction mixture, 2 μL of AM or an AM analog peptide (2×10^−6 M, final concentration: 10^−7 M) was added, and reaction was initiated at 37° C. The reaction was terminated by addition of 160 μL of ELISA buffer to the reaction mixture 0, 1, or 4 hours after the beginning of reaction. […] In the figure, the abscissa represents reaction time (hr), and the ordinate represents concentration in serum of AM or an AM analog (%) represented as relative values to concentration of AM or an AM analog at the beginning of reaction (i.e., 0 hours after the beginning of reaction).
# [2] = target: T1, AM type 1 receptor (AMI receptor) (Homo sapiens, UniProt O60895+Q16602); assay: Intracellular cAMP production in HEK293 cells stably expressing AM type 1 receptor (Experiments V and IX); assay type: cell-based; settings: for intracellular cAMP concentration-increasing activity: Experiment IX, addition at 10^−9 M or 10^−8 M, HEK293 cells
# T1 construct: expressed in transfected cells; medium contains hygromycin B and Geneticin
# Text: The adrenomedullin activity exerted by AM, shown above with examples, will be exerted via increased concentration of intracellular cAMP in normal cases. Thus, the increased concentration of intracellular cAMP can be considered as an index of the adrenomedullin activity of the compound according to the aspect. In each aspect of the invention, the effect of increasing concentration of intracellular cAMP can be evaluated, for example, by adding a target compound to a cultured cell line (HEK293 cell line) caused to stably express an AM type 1 receptor (AMI receptor) and measuring the amount of intracellular cAMP produced.
# The physiological effect of AM is known to be exerted via increase in the concentration of intracellular cAMP (see Kitamura K et al., Biochem Biophys Res Commun, 30 Apr. 1993, Volume 192, Issue 2, pp. 553-560). Accordingly, each AM analog was added to a cultured cell line (HEK293 cell line) caused to stably express an AM type 1 receptor (AMI receptor), and the amount of intracellular cAMP produced was measured. HEK293 cells were cultured in Dulbecco's modified Eagle's medium (with 10% fetal bovine serum, 100 U/ml penicillin G, […] streptomycin, 0.25 mg/ml amphotericin B, […] hygromycin B, and […] Geneticin) in a fibronectin-coated 24-well plate (Thermo Fisher Scientific) (under 37° C., humidified, 5% CO2 conditions). After culturing for 3 days, 90%-confluent cells with accumulation of intracellular cAMP stimulated were subjected to experiment. The medium was exchanged with Hanks's balanced salt solution containing 20 mM 4-(2-hydroxyethyl)-1-piperazineethanesulfonic acid and 0.1% bovine serum albumin, AM or an AM analog was added to the cells in the presence of 0.5 mM isobutylmethylxanthine (IBMX), and the cells were incubated at 37° C. for 15 minutes. The reaction was terminated by addition of cell lysis buffer. Then, the amount of intracellular cAMP produced in the HEK293 cells of each well was measured using an ELISA kit for cAMP measurement (GE Healthcare Japan Corp., #RPN2251). […] In the figure, the abscissa represents logarithms of concentration of AM or an AM analog added (M), and the ordinate represents amounts of intracellular cAMP produced in HEK293 cells stably expressing an AMI receptor (fmol/well).
# In the figure, the abscissa represents logarithms of concentration of AM or an AM analog added (M), and the ordinate represents amounts of intracellular cAMP produced in HEK293 cells stably expressing an AMI receptor (fmol/ml).
# [3] = in vivo; settings: for detection in rat plasma after subcutaneous administration: 50 nmol/kg subcutaneous, Experiment X; for Cmax: male, Wistar, rat, in vivo, sc, 50 nmol/kg
# Procedure: Seven-week-old male Wistar rats were prepared, and grown with normal feeds. To determine plasma AM concentrations, 50 nmol/kg of AM or an AM analog was subcutaneously administered. A peripheral blood sample was collected from the tail vein into a Kantan tube® (containing heparin Na, Eiken Chemical Co., Ltd., Tochigi, Japan) at predetermined times (0, 15, 30, 60, and 120 minutes after administration). The tube was centrifuged at 2,000×g. Plasma was collected from the tube, and transferred into a test tube (containing 21 μg of aprotinin and 0.3 mg of EDTA-2Na) and stored. […] In the figure, the abscissa represents elapsed time after subcutaneous administration (hr), and the ordinate represents concentration in plasma of AM or an AM analog (pM). In addition, maximum concentrations in blood (Cmax) of AM or the AM analogs in rat plasma after subcutaneous administration were calculated.
# T1 sequence (Q16602 23-461): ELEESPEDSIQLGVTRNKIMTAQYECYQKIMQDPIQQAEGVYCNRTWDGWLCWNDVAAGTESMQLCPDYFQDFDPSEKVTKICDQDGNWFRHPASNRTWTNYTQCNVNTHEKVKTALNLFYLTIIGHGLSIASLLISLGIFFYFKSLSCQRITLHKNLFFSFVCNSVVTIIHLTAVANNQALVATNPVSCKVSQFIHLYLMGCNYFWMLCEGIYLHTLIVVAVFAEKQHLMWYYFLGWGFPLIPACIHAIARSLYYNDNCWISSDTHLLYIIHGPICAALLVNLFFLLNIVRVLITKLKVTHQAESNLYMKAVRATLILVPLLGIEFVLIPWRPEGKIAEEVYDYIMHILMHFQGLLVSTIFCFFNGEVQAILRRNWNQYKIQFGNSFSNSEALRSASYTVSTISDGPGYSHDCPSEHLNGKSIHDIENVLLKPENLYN
# T1 sequence (O60895 43-175): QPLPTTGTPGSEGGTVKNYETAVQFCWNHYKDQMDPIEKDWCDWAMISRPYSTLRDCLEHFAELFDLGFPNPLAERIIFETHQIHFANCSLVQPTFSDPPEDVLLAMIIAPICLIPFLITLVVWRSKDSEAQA
SMILES,stability in reaction mixture with human serum [1],pEC50 [2],intracellular cAMP concentration-increasing activity [2],detection in rat plasma after subcutaneous administration [3],Cmax [3] [nM],"remaining at 4 h ([1]; human, serum) [%]"
"CC[C@H](C)[C@H](NC(=O)[C@H](CCC(N)=O)NC(=O)[C@H](Cc1c[nH]cn1)NC(=O)[C@H](C)NC(=O)[C@H](CC(C)C)NC(=O)[C@H](CCCCN)NC(=O)[C@H](CCC(N)=O)NC(=O)[C@@H](NC(=O)[C@@H](NC(=O)[C@@H]1CSSC[C@H](NC(=O)CNC(=O)[C@H](Cc2ccccc2)NC(=O)[C@@H](N)CO)C(=O)N[C@@H](CCCNC(=N)N)C(=O)N[C@@H](Cc2ccccc2)C(=O)NCC(=O)N[C@@H]([C@@H](C)O)C(=O)N1)[C@@H](C)O)C(C)C)C(=O)N[C@@H](Cc1ccc(O)cc1)C(=O)N[C@@H](CCC(N)=O)C(=O)N[C@@H](Cc1ccccc1)C(=O)N[C@H](C(=O)N[C@@H](CC(=O)O)C(=O)N[C@@H](CCCCN)C(=O)N[C@@H](CC(=O)O)C(=O)N[C@@H](CCCCN)C(=O)N[C@@H](CC(=O)O)C(=O)N[C@@H](CC(N)=O)C(=O)N[C@H](C(=O)N[C@@H](C)C(=O)N1CCC[C@H]1C(=O)N[C@@H](CC(=O)O)C(=O)N[C@@H](CO)C(=O)N[C@@H](CCCCN)C(=O)N[C@H](C(=O)N[C@@H](CO)C(=O)N1CCC[C@H]1C(=O)N[C@@H](CCC(N)=O)C(=O)NCC(=O)N[C@@H](Cc1ccc(O)cc1)C(N)=O)[C@@H](C)CC)C(C)C)[C@@H](C)O [[Asp-44]hAM(13-52), SFGCRFGTCTVQKLAHQIYQFTDKDKDNVAPDSKISPQGY-CONH2] (H-SFGCRFGTCTVQKLAHQIYQFTDKDKDNVAPDSKISPQGY-NH2; disulfide 4-9)",stable,–,–,–,–,–
"CC[C@H](C)[C@H](NC(=O)[C@H](CCC(N)=O)NC(=O)[C@H](Cc1c[nH]cn1)NC(=O)[C@H](C)NC(=O)[C@H](CC(C)C)NC(=O)[C@H](CCCCN)NC(=O)[C@H](CCC(N)=O)NC(=O)[C@@H](NC(=O)[C@@H](NC(=O)[C@@H]1CSSC[C@H](NC(=O)CNC(=O)[C@H](Cc2ccccc2)NC(=O)[C@@H](N)CO)C(=O)N[C@@H](CCCNC(=N)N)C(=O)N[C@@H](Cc2ccccc2)C(=O)NCC(=O)N[C@@H]([C@@H](C)O)C(=O)N1)[C@@H](C)O)C(C)C)C(=O)N[C@@H](Cc1ccc(O)cc1)C(=O)N[C@@H](CCC(N)=O)C(=O)N[C@@H](Cc1ccccc1)C(=O)N[C@H](C(=O)N[C@@H](CC(=O)O)C(=O)N[C@@H](CCCCN)C(=O)N[C@@H](CC(=O)O)C(=O)N[C@@H](CCCCN)C(=O)N[C@@H](CC(=O)O)C(=O)N[C@@H](CC(N)=O)C(=O)N[C@H](C(=O)N[C@@H](C)C(=O)N1CCC[C@H]1C(=O)NCC(=O)N[C@@H](CO)C(=O)N[C@@H](CCCCN)C(=O)N[C@H](C(=O)N[C@@H](CO)C(=O)N1CCC[C@H]1C(=O)N[C@@H](CCC(N)=O)C(=O)NCC(=O)N[C@@H](Cc1ccc(O)cc1)C(N)=O)[C@@H](C)CC)C(C)C)[C@@H](C)O [[Gly-44]hAM(13-52), SFGCRFGTCTVQKLAHQIYQFTDKDKDNVAPGSKISPQGY-CONH2] (H-SFGCRFGTCTVQKLAHQIYQFTDKDKDNVAPGSKISPQGY-NH2; disulfide 4-9)",stable,7.96,approximately equivalent to that of hAM(1-52) or hAM(13-52),detected in rat plasma 15 minutes after administration,0.76,–
"CC[C@H](C)[C@H](NC(=O)[C@H](CCC(N)=O)NC(=O)[C@H](Cc1c[nH]cn1)NC(=O)[C@H](C)NC(=O)[C@H](CC(C)C)NC(=O)[C@H](CCCCN)NC(=O)[C@H](CCC(N)=O)NC(=O)[C@@H](NC(=O)[C@@H](NC(=O)[C@@H]1CSSC[C@H](NC(=O)CNC(=O)[C@H](Cc2ccccc2)NC(=O)[C@@H](N)CO)C(=O)N[C@@H](CCCNC(=N)N)C(=O)N[C@@H](Cc2ccccc2)C(=O)NCC(=O)N[C@@H]([C@@H](C)O)C(=O)N1)[C@@H](C)O)C(C)C)C(=O)N[C@@H](Cc1ccc(O)cc1)C(=O)N[C@@H](CCC(N)=O)C(=O)N[C@@H](Cc1ccccc1)C(=O)N[C@H](C(=O)N[C@@H](CC(=O)O)C(=O)N[C@@H](CCCCN)C(=O)N[C@@H](CC(=O)O)C(=O)N[C@@H](CCCCN)C(=O)N[C@@H](CC(=O)O)C(=O)N[C@@H](CC(N)=O)C(=O)N[C@H](C(=O)N[C@@H](C)C(=O)N1CCC[C@H]1C(=O)N[C@@H](Cc1ccccc1)C(=O)N[C@@H](CO)C(=O)N[C@@H](CCCCN)C(=O)N[C@H](C(=O)N[C@@H](CO)C(=O)N1CCC[C@H]1C(=O)N[C@@H](CCC(N)=O)C(=O)NCC(=O)N[C@@H](Cc1ccc(O)cc1)C(N)=O)[C@@H](C)CC)C(C)C)[C@@H](C)O [[Phe-44]hAM(13-52), SFGCRFGTCTVQKLAHQIYQFTDKDKDNVAPFSKISPQGY-CONH2] (H-SFGCRFGTCTVQKLAHQIYQFTDKDKDNVAPFSKISPQGY-NH2; disulfide 4-9)",stable,8.29,approximately equivalent to that of hAM(1-52) or hAM(13-52),detected in rat plasma 15 minutes after administration,0.323,–
"CC[C@H](C)[C@H](NC(=O)[C@H](CCC(N)=O)NC(=O)[C@H](Cc1c[nH]cn1)NC(=O)[C@H](C)NC(=O)[C@H](CC(C)C)NC(=O)[C@H](CCCCN)NC(=O)[C@H](CCC(N)=O)NC(=O)[C@@H](NC(=O)[C@@H](NC(=O)[C@@H]1CSSC[C@H](NC(=O)CNC(=O)[C@H](Cc2ccccc2)NC(=O)[C@@H](N)CO)C(=O)N[C@@H](CCCNC(=N)N)C(=O)N[C@@H](Cc2ccccc2)C(=O)NCC(=O)N[C@@H]([C@@H](C)O)C(=O)N1)[C@@H](C)O)C(C)C)C(=O)N[C@@H](Cc1ccc(O)cc1)C(=O)N[C@@H](CCC(N)=O)C(=O)N[C@@H](Cc1ccccc1)C(=O)N[C@H](C(=O)N[C@@H](CC(=O)O)C(=O)N[C@@H](CCCCN)C(=O)N[C@@H](CC(=O)O)C(=O)N[C@@H](CCCCN)C(=O)N[C@@H](CC(=O)O)C(=O)N[C@@H](CC(N)=O)C(=O)N[C@H](C(=O)N[C@@H](C)C(=O)N1CCC[C@H]1C(=O)N[C@@H](CCCNC(=N)N)C(=O)N1CCC[C@H]1C(=O)N[C@@H](CCCCN)C(=O)N[C@H](C(=O)N[C@@H](CO)C(=O)N1CCC[C@H]1C(=O)N[C@@H](CCC(N)=O)C(=O)NCC(=O)N[C@@H](Cc1ccc(O)cc1)C(N)=O)[C@@H](C)CC)C(C)C)[C@@H](C)O [[Pro-45]hAM(13-52), SFGCRFGTCTVQKLAHQIYQFTDKDKDNVAPRPKISPQGY-CONH2] (H-SFGCRFGTCTVQKLAHQIYQFTDKDKDNVAPRPKISPQGY-NH2; disulfide 4-9)",–,–,–,–,–,~60
